In ChEMBL document CHEMBL4616598 (Bioorg Med Chem, 2020):

How the values were obtained:
[1] = target: 5-hydroxytryptamine receptor 7 (Homo sapiens, UniProt P34969); assay: Displacement of [3H]-5-carboxamidotryptamine from human 5-HT7A receptor expressed in HEK293 cell membranes incubated for 90 mins by scintillation counting method
[2] = target: T1, 5-hydroxytryptamine receptor 1A (Homo sapiens, UniProt P08908); assay: Displacement of [3H]-5-carboxamidotryptamine from human 5-HT1A receptor expressed in HEK293T cell membranes incubated for 90 mins by scintillation counting method; parameters: species or system HEK-293T
T1 sequence (P08908 whole entry): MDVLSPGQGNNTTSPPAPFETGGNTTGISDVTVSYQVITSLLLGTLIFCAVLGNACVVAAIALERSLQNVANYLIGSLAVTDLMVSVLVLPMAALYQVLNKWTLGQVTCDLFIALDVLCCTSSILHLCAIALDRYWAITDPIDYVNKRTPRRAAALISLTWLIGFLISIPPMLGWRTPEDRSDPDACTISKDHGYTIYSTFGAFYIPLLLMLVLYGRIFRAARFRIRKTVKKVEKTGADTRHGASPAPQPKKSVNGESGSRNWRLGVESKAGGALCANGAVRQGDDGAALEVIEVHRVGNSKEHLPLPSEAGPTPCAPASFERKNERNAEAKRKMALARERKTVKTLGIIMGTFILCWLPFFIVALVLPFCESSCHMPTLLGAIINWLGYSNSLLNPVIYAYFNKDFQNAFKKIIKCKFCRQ

[3] = species: Homo sapiens; assay: Selectivity ratio of Ki for displacement of [3H]-5-carboxamidotryptamine from human 5-HT1A receptor expressed in HEK293T cell membranes to Ki for displacement of [3H]-5-carboxamidotryptamine from human 5-HT7 receptor expressed in HEK293 cell membranes

Chain of 5-hydroxytryptamine receptor 7 (P34969 whole entry): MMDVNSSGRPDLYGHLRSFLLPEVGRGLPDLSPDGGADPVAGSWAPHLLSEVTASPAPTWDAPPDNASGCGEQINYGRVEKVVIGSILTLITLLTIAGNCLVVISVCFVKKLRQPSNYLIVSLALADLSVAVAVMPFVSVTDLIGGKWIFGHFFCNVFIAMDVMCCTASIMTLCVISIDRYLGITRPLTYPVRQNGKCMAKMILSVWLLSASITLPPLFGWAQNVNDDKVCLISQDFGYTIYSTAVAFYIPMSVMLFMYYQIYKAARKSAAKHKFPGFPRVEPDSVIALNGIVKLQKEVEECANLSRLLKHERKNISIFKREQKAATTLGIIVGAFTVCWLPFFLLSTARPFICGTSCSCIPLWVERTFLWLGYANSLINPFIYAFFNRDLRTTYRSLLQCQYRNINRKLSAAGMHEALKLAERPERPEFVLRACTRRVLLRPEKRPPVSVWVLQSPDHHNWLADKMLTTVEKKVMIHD

Row | Compound | Ki [1] [nM] | Ki [2] [nM] | Ratio Ki [3]
1 | CN(C)[C@H]1CCc2c(cccc2-c2cccn2C)C1 | 33 | 24 | 0.72
2 | CN(C)[C@@H]1CCc2c(cccc2-c2ccc(Cl)cc2)C1 | 84 | 19 | 0.23
3 | CN(C)[C@H]1CCc2c(cccc2-c2ccccc2Cl)C1 | – | – | 7.6
4 | CN(C)[C@H]1CCc2c(cccc2-c2ccccc2)C1 | 9.5 | – | 0.66
5 | CN(C)C1CCc2c(cccc2-c2ccc(F)cc2)C1 (racemic) | 117 | 30 | 0.26
6 | CN(C)[C@@H]1CCc2c(cccc2-c2cccs2)C1 | 180 | 150 | 0.83
7 | CN(C)[C@H]1CCc2c(cccc2-c2ccc(Cl)cc2)C1 | 160 | 190 | 1.2
8 | CN(C)[C@@H]1CCc2c(cccc2-c2cccn2C)C1 | 600 | – | 0.92
9 | CN(C)[C@H]1CCc2c(cccc2-c2ccco2)C1 | 71 | – | 0.46
10 | CN(C)C1CCc2c(cccc2C2CCCC2)C1 (racemic) | – | 98 | 0.41
11 | CCCN(CCC)[C@@H]1CCc2c(cccc2-c2ccccc2Cl)C1 | 390 | 130 | 0.33
12 | CCCN(CCC)[C@@H]1CCc2c(cccc2-c2ccccc2F)C1 | 740 | 92 | 0.12
13 | CCCN(CCC)[C@H]1CCc2c(cccc2-c2ccccc2F)C1 | 5.3 | 1.8 | 0.34
14 | CCCN(CCC)[C@@H]1CCc2c(cccc2-c2ccccc2)C1 | 190 | 210 | 1.1
15 | CN(C)C1CCc2c(cccc2-c2cccc(C(F)(F)F)c2)C1 (racemic) | – | 180 | 2.9
16 | CN(C)[C@@H]1CCc2c(cccc2-c2ccccc2)C1 | 5200 | 1100 | 0.21
17 | CN(C)[C@H]1CCc2c(cccc2-c2cccc3ccccc23)C1 | – | – | 12
18 | CN(C)[C@H]1CCc2c(cccc2-c2cccs2)C1 | 17 | 4.5 | 0.26

Row | Compound | Ki [1] [nM] | Ki [2] [nM] | Ratio Ki [3]
19 | CN(C)C1CCc2c(cccc2-c2c3ccccc3cc3ccccc23)C1 (racemic) | 450 | 1400 | 3.1
20 | CN(C)[C@@H]1CCc2c(cccc2-c2ccccc2F)C1 | 740 | – | –
21 | Fc1ccccc1-c1cccc2c1CCC(N1CCCC1)C2 (racemic) | – | – | 0.025
22 | CCCN(CCC)[C@H]1CCc2c(cccc2-c2ccccc2)C1 | – | – | 0.17
23 | CCCN(CCC)[C@H]1CCc2c(cccc2-c2ccccc2Cl)C1 | – | 0.64 | 0.11
24 | CN(C)C1CCc2c(cccc2-c2ccc(F)cc2Cl)C1 (racemic) | 16 | 33 | 2.1
25 | CN(C)C1CCc2c(cccc2-c2cccc3ccccc23)C1 (racemic) | 22 | 130 | 5.9
26 | CN(C)C1CCc2c(cccc2-c2cncc3ccccc23)C1 (racemic) | 97 | 650 | 6.7
27 | COc1cccc(-c2cccc3c2CCC(N(C)C)C3)c1 (racemic) | 28 | 73 | 2.6
28 | CN(C)C1CCc2c(cccc2-c2cc(F)cc(F)c2)C1 (racemic) | – | 230 | 1.3
29 | Cc1nn(C)c(C)c1-c1cccc2c1CC[C@H](N(C)C)C2 | – | – | 20
30 | CN(C)C1CCc2c(cccc2-c2cc(Cl)cc(Cl)c2)C1 (racemic) | 400 | 2200 | 5.5
31 | CN(C)[C@@H]1CCc2c(cccc2-c2ccco2)C1 | 2600 | 5600 | 2.2
32 | CN(C)C1CCc2c(cccc2-c2cccc(Cl)c2)C1 (racemic) | 26 | 82 | 3.2
33 | CN(C)[C@@H]1CCc2c(cccc2-c2cc(C(F)(F)F)cc(C(F)(F)F)c2)C1 | > 10000 | > 10000 | –
34 | CN(C)C1CCc2c(cccc2-c2ccccc2Cl)C1 (racemic) | 4.2 | 14 | 3.3
35 | CN(C)C1CCc2c(cccc2-c2cccc(F)c2)C1 (racemic) | 18 | 23 | 1.3
36 | CN(C)[C@H]1CCc2c(cccc2-c2cc(C(F)(F)F)cc(C(F)(F)F)c2)C1 | – | 2230 | 2.5
